The values that follow come from US6187906A, “Methods to improve neural outcome” (Aukland Uniservices Limited, priority 1998, dated 2001).

The subject of experiment [1] is mesencephalic neurons (dopaminergic). The experiment in a line: Dopamine uptake in 6-OHDA treated embryonic mesencephalic cultures (Experiment 8). It counts as cell-based, Wistar rat. The settings on record: 0.01-100 μM GPE, 4 μM 6-OHDA.
Protocol: Wistar rat ventral mesencephali from E15 (E1=plug) fetuses were dissected, pooled, and gently dissociate by repeated trituration in 3 ml of sterile modified Krebs-Ringer medium (Gibco, Life Technologies Ltd., NZ) supplemented per liter with 50,000 IU penicillin, 50 mg streptomycin, 1.26 g NaHCO3, and 2.2 g glucose. 2 ml of media was added and the suspension allowed to stand for 7 minutes, after which the supernatant was centrifuged for 7 minutes at 350 xg. The pellet was resuspended in serum-containing media: MEM media with 50,000 IU penicillin, 50 mg streptomycin, 1.26 g NaHCO3 and 5% fetal calf serum (Gibco). Cells were seeded at 2.5-4.0×10^5 trypan-excluding viable cells/cm^2 in sterile 24 well plates precoated for two hours with 5 μg/ml poly-L lysine in H2 O. Cultures were allowed to recover for 24 h at 37° C. in a humidified 95% air: 5% CO2 incubator. […]
Cultures were assayed for dopamine uptake using a modified procedure of Prochiantz et al., 1981 (Nature, Vol. 293, No., 5833). […] The wells were then rinsed with 250 μl 1% Triton X-100 and the contents added to the appropriate scintillation vial containing 4 ml of Ready safe scintillation fluid (Beckman, Palo Alto, Calif.). […]
The next experiment relates to substantia nigra neurons. The experiment is described as follows: Medial forebrain bundle transection, TH immunopositive cell survival (Experiment 7). The settings on record: lesioned side; daily supranigral GPE 0.3 μg for two weeks. In kind it is in vivo, Wistar rats. On the procedure:
Adult male Wistar rats (200-220 g) were anaesthetized with 75 mg/kg Nembutal and positioned in a stereotaxic apparatus. Unilateral transection of the medial forebrain bundle which contains the ascending nigral dopaminergic projection fibers was made 1.3 mm rostral to the rostral tip of the substantia nigra using a retractable wire knife (David Kopf Instruments, Tujunga, Calif.). The knife was lowered into the brain using the following coordinates from the atlas of Paxinos and Watson (1996), Sydney: Academic Press: 3.3 mm posterior to Bregma, 2.4 mm lateral from midline, and 8.5 mm ventral from skull, the blade was extended 2.0 mm toward midline, raised 2.5 mm dorsally, retracted and extended again, and then returned 2.5 mm ventrally. The wire blade was retracted and the knife withdrawn. Next, a 22-gauge metal guide cannula was permanently fixed into place supranigrally at 5.0 mm posterior to Bregma, 2.0 mm lateral to midline, and 6.8 mm ventral to skull. A second set of intact unlesioned rats were cannulated supranigrally at the same coordinates. […]
Immunopositive cells were counted in the central substantia nigra. […] To reveal percent survival, percent changes were calculated by dividing the ipsilateral value by contralateral value.

Experiment [2] deals with dopamine neurons in the pars compacta region of the substantia nigra. The experiment in a line: 6-OHDA lesion, count of TH immunopositive neurons in substantia nigra (Experiments 4 and 5). It counts as in vivo, Wistar rats. On the procedure: This experiment was blind with respect to the treatment (with GPE or the vehicle) and with respect to the counting of neurons expressing TH (between sections from animals treated with GPE or vehicle).
The objective of this experiment was to determine the effects of administering GPE on the expression of tyrosine hydroxylase (TH) in the presence or absence of CNS injury. […] Specifically, 9 pairs of adult male Wistar rats (280-320 g) were prepared under 3% halothane/O2 anaesthesia. The oxygen free radical producing neurotoxin 6-hydroxydopamine (6-OHDA) which produces degeneration of dopamine neurones (8 μg/2 μl) was injected into the median forebrain bundle using a 30 gauge needle (coordinates: anterior-posterior +4.7 mm, right +1.6 mm, vertical -8.5 mm). A guide cannula was placed on the dura 7.5 mm anterior from stereotaxic zero and 1.5 mm from the midline on the right. The rats were left to recover at room temperature. […]
The total counts of neurons were compared between the GPE and the vehicle treated group. Data were analysed with paired t-test and presented as mean ±sem.
Experiment 5 was performed using a second set of rats (9 pairs) using the same experimental parameters except that only the immunopositive neurons at 2 levels of the substantia nigra were counted.

For `NCC(=O)N1CCC[C@H]1C(=O)N[C@@H](CCC(=O)O)C(=O)O` [GPE, gly-pro-glu], the “protection from 6-OHDA toxicity (dopamine uptake)” value in experiment [1] is “protects mesencephalic neurons”. Moreover, the “percent cell survival of TH immunopositive neurons” value in the experiment with substantia nigra neurons is recorded as “increased”. In experiment [2] (Experiments 4 and 5), the “protection of dopaminergic neurons against 6-OHDA (TH expression in SNc)” value is on record as “provided protection”. Also, the “number of TH immunopositive dopamine neurons” value in experiment [2] (lesioned (right) side, 3 μg GPE 2 hours after 6-OHDA, 14 days, Experiment 4) is given as “increased”.
